The values below come from patent US11976069B2, “Inhibitors of histone deacetylase useful for the treatment or prevention of HIV infection” (Merck Sharp & Dohme LLC, priority 2019, dated 2024).

Like-named read-outs stand apart in the source and are kept apart here. Where only a bound is given, the exact number is not on record here.

Holding throughout (type): biochemical
The target in one assay is T1, HDAC3/SMRT heterodimer (Homo sapiens, UniProt O15379).
T1 construct: FLAG (C)
The experiment in a line: HDAC3/SMRT inhibition, modified Fluor-de-Lys assay. The conditions noted are these: 3 h pre-incubation, 0.3 nM enzyme, 20 μM substrate BML-KI104, read-out: HDAC-3 IC50. How it is done:
(§1) Human HDAC Enzyme Inhibitor FLUOR-DE-LYS Assay Materials
(§2) Recombinant human HDAC1, HDAC2, and HDAC3/SMRT heterodimer were prepared by Merck Research Laboratories. […] The eluted protein was then passed over an anti-HDAC1 immunoaffinity column to remove any complexes containing HDAC1. […]
(§3) The histone deacetylase activities of HDAC1, HDAC2, HDAC3, HDAC6, and HDAC8 were measured in modified Fluor-de-Lys assays in 384-well format. In this assay, HDAC enzymes are initially incubated with an ε-acetyl (or -trifluoroacetyl)-L-lysine-containing substrate with a C-terminal amide having aminomethylcoumarin as the amine component. HDACs cleave the ε-acetyl group, rendering the resulting product susceptible to AMC cleavage by trypsin. The released AMC is then detected by its fluorescence.
(§4) The HDAC 1, 2 assays employed buffer A, which contained 20 mM HEPES, pH 8.0, 1 mM MgCl2, 137 mM NaCl, 2.7 mM KCl, 0.05% BSA. The HDAC3/SMRT assay employed buffer B, consisting of 20 mM HEPES, pH 8.0, 1 mM MgCl2, 50 mM NaCl, 2.7 mM KCl, 0.05% BSA, 0.005% Tween 20, and 10 μM IP4. The HDAC6 assay employed buffer C, consisting of 20 mM HEPES, pH 8.0, 1 mM MgCl2, 137 mM NaCl, 2.7 mM KCl, 0.5 mM TCEP (Calbiochem) and 0.05% BSA. The HDAC8 assay employed buffer D, consisting of 20 mM HEPES, pH 8.0, 1 mM MgCl2, 100 mM NaCl, 20 mM KCl, 0.1% n-octyl-β-D-glucoside (Anatrace, Maumee, Ohio) and 0.05% BSA. All steps were performed at room temperature (23° C.). The assay was performed by pre-incubating serial dilutions of test compounds with the target HDAC prior to initiation with substrate. Each compound was titrated in a 10-point dose response, using a 1:3 fold dilution scheme, with 0.15 ul of solution added by ECHO555 to the plate, followed by the addition of 20 μl of the appropriate HDAC isoform diluted in appropriate assay buffer. […] Final conditions used for each assay were: 1. HDAC 1, 0.3 nM total enzyme, 20 μM substrate BML-KI104; 2. HDAC 2, 1.5 nM total enzyme, 40 μM substrate BML-KI104; 3. HDAC 3/SMRT, 0.3 nM total enzyme, 20 μM substrate BML-KI104; 4. HDAC 6, 1.3 nM total enzyme, 2.5 μM substrate BML-KI104; 5. HDAC 8, 1.3 nM total enzyme, 200 μM substrate BML-KI178; the final high dose of test compound was 30 μM. For potent compounds, 900 nM was used as the final high dose. The reactions were stopped and developed by addition of 30 ul of HDAC developer solution containing a saturating level of HDAC inhibitor as follows: 1.

For a further assay, the target named is T2, HDAC2 (Homo sapiens, UniProt Q92769).
T2 construct: Full length human HDAC2-FLAG was expressed in baculovirus infected Sf9 cells; FLAG (C); host or cells: baculovirus infected Sf9 cells
The experiment in a line: HDAC2 inhibition, modified Fluor-de-Lys assay. The note with it: 3 h pre-incubation, […] enzyme, 40 μM substrate BML-KI104; read-out: HDAC-2 IC50. As for the experimental part: as §1, §2, §3, §4

The target of a further assay is T3, HDAC1 (Homo sapiens, UniProt Q13547).
T3 construct: FLAG (C)
The assay can be described thus: HDAC1 inhibition, modified Fluor-de-Lys assay. The conditions noted are these: 3 h pre-incubation, 0.3 nM enzyme, 20 μM substrate BML-KI104; read-out: HDAC-1 IC50. How it is done: as §1, §2, §3, §4

For the next assay, the target named is T4, HDAC6 (Homo sapiens, UniProt Q9UBN7).
T4 sequence (Q9UBN7 1-1215): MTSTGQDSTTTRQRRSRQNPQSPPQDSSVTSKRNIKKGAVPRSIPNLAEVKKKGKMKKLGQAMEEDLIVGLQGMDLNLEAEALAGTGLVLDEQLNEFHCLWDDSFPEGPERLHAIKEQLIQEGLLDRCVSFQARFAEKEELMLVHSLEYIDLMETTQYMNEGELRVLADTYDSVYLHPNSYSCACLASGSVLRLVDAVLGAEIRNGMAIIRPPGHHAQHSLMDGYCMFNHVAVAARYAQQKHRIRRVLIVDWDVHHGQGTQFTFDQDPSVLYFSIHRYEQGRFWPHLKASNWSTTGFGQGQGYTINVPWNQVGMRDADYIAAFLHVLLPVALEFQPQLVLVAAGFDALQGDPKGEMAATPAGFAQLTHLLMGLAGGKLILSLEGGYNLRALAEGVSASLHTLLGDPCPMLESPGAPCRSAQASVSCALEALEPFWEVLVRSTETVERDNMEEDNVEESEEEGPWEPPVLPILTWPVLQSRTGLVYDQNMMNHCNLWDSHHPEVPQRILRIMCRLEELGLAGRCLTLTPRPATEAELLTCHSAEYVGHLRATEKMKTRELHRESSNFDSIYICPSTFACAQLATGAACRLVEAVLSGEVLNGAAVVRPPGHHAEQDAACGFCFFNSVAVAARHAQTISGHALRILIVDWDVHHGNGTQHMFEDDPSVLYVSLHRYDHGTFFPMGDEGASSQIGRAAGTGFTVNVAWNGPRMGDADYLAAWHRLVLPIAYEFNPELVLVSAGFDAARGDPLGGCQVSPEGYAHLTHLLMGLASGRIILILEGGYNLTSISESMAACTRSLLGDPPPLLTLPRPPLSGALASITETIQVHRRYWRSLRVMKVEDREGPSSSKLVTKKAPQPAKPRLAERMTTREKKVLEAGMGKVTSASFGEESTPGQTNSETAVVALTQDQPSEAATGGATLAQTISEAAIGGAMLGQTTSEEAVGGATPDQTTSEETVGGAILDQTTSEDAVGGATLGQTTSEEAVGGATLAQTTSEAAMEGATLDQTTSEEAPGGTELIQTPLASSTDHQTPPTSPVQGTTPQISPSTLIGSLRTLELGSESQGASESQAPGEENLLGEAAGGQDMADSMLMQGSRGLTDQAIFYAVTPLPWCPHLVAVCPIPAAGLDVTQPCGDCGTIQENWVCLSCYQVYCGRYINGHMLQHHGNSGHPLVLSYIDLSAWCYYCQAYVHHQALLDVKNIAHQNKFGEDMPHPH
The assay can be described thus: HDAC6 inhibition, modified Fluor-de-Lys assay. The conditions noted are these: 3 h pre-incubation, read-out: HDAC-6 IC50. As for the experimental part:
as §1, §3, §4

[1] abbreviates: […] enzyme, […] substrate BML-KI104.
Where [2] appears, read: 1.3 nM enzyme, 2.5 μM substrate BML-KI104.

T3 sequence (Q13547 whole entry): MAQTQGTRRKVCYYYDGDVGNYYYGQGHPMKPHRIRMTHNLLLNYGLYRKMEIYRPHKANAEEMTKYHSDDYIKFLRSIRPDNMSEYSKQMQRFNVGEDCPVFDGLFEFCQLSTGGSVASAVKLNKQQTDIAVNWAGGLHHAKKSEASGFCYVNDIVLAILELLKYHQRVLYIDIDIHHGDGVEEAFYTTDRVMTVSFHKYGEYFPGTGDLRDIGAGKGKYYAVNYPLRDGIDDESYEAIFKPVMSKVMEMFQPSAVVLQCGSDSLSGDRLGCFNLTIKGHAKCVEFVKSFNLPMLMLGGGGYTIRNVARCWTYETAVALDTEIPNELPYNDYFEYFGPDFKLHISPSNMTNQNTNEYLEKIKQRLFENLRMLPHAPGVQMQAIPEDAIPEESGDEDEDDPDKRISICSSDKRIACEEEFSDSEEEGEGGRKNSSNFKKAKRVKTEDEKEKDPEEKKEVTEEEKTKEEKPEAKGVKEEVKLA
T1 sequence (O15379 whole entry): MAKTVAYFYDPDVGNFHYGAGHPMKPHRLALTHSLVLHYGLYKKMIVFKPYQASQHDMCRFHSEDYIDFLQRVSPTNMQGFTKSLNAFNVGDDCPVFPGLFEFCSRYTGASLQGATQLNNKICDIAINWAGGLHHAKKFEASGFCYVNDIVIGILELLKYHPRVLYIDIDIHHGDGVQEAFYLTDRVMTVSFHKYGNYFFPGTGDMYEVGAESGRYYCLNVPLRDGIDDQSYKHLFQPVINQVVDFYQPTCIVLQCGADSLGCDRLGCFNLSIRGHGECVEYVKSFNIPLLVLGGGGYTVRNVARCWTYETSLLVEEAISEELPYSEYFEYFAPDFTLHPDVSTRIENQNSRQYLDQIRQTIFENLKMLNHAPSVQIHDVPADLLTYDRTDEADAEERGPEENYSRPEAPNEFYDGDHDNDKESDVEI
T1 sequence (Q9Y618 1-899 partner limits assumed): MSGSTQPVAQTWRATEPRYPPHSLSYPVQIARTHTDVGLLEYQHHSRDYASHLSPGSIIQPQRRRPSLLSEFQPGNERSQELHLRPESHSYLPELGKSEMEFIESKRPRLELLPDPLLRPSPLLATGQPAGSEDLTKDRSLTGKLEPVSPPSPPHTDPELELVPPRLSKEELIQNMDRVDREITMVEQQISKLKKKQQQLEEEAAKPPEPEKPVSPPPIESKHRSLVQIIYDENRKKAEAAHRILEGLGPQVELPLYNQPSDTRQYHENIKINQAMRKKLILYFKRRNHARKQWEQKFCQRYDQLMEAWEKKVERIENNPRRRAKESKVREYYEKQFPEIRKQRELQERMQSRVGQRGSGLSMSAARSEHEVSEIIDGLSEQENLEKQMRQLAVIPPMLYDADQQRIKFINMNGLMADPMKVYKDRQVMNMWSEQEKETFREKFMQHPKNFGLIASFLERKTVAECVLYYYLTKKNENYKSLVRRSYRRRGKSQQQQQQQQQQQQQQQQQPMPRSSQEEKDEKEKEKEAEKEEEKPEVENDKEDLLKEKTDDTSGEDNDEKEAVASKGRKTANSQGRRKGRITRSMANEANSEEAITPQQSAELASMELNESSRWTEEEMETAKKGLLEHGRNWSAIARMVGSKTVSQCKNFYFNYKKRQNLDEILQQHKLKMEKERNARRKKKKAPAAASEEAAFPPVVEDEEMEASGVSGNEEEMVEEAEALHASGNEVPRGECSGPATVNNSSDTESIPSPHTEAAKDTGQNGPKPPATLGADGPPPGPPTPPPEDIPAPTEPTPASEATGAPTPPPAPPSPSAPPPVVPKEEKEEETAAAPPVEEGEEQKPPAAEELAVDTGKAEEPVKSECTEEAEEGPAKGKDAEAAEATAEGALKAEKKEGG
T2 sequence (Q92769 whole entry): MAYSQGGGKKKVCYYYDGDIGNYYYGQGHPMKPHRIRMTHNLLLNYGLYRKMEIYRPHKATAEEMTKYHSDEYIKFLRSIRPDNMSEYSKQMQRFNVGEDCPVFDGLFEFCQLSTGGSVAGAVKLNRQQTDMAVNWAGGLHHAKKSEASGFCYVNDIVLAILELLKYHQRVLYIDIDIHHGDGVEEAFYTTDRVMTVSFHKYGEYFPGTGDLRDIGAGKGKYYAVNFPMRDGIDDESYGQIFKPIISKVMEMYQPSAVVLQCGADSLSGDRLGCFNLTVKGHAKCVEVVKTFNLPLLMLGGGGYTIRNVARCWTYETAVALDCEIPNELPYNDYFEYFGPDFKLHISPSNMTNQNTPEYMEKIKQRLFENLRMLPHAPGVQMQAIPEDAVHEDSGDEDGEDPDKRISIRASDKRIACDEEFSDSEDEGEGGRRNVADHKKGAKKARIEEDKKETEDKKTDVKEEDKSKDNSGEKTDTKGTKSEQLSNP

Broadly, the IC50 is the concentration needed to halve the response being measured. As for `CCC(=O)CCCCC[C@@H]1NC(=O)[C@H]2CC23CCN(CCCCCCCCn2ccc4cc(c(OC)cc4c2=O)-c2cnc1[nH]2)CC3` [Compound 5, (1^1S,4S)-6^7-methoxy-4-(6-oxooctyl)-6^1,6^2-dihydro-5^1H-3-aza-6(6,2)-isoquinolina-15(4,1)-piperidina-5(2,5)-imidazola-1(1,2)-cyclopropanapentadecaphane-6^1,2-dione], the IC50 amounted to 0.13 nM on HDAC3/SMRT heterodimer, 0.31 nM on HDAC2, 0.11 nM at HDAC1 and 218 nM at HDAC6 (setting [1]).
For `CCC(=O)CCCCCC1NC(=O)C2CC2N2CCC(CCCCCn3c(=O)ccc4cc(ccc43)-c3cnc1o3)CC2` [Compound 7, (11S,4S)-4-(6-oxooctyl)-61,62-dihydro-3-aza-5(2,5)-oxazola-6(6,1)-quinolina-12(4,1)-piperidina-1(1,2)-cyclopropanadodecaphane-62,2-dione] the same measures were 57 nM, 260 nM, 16 nM and 858 nM.
With `CCC(=O)CCCCC[C@@H]1NC(=O)[C@H]2CC23CCN(CCCOCCCn2ccc4cc(ccc4c2=O)-c2cnc1[nH]2)CC3` [Compound 12, (3S,6S)-6-(6-oxooctyl)-22-oxa-5,8,18,26,33-pentaazahexacyclo[24.2.2.1˜7,10˜0.1˜11,15˜0.1˜14,18˜0.0˜1,3˜]tritriaconta-7,9,11(32),12,14,16-hexaene-4,31-dione], the half-maximal inhibitory concentration (IC50) at HDAC3/SMRT heterodimer was determined as 0.32 nM; on HDAC2 it was 8.5 nM; on HDAC1, 0.33 nM.
On to `CCC(=O)CCCCC[C@H](NC(=O)[C@H]1CC12CCN(CC)CC2)c1[nH]c2nc1C(=O)NCCC/C=C\c1cccc-2c1` [Compound 14, (1S)-6-ethyl-N-{(1S)-7-oxo-1-[(11Z)-6-oxo-3,7,18-triazatricyclo[11.3.1.1~2,5~]octadeca-1(17),2(18),4,11,13,15-hexaen-4-yl]nonyl}-6-azaspiro[2.5]octane-1-carboxamide], for which the IC50 at HDAC3/SMRT heterodimer was 113 nM; at HDAC2 it was 572 nM; at HDAC1, 133 nM; at HDAC6 (setting [2]), more than 90 nM.
Taken in the same sequence, the figures for `CCC(=O)CCCCC[C@H](NC(=O)[C@H]1CC12CCN(CC)CC2)c1[nH]c2nc1C(=O)NCCC/C=C/c1cccc-2c1` [Compound 15, (1S)-6-ethyl-N-{(1S)-7-oxo-1-[(11E)-6-oxo-3,7,18-triazatricyclo[11.3.1.1~2,5~]octadeca-1(17),2(18),4,11,13,15-hexaen-4-yl]nonyl}-6-azaspiro[2.5]octane-1-carboxamide] were 18 nM, 223 nM, 21 nM and more than 900 nM.
Turning to “(11S,4S)-4-(6-oxooctyl)-61,62-dihydro-3-aza-5(2,5)-oxazola-6(6,1)-quinolina-12(4,1)-piperidina-1(1,2)-cyclopropanadodecaphane-62,2-dione [Compound 8]”, the IC50 was 130 nM at HDAC3/SMRT heterodimer, 287 nM on HDAC2, 42 nM on HDAC1 and more than 900 nM on HDAC6 (setting [1]).
